In ChEMBL document CHEMBL1155732, “Anti-AIDS agents. 46. Anti-HIV activity of harman, an anti-HIV principle from Symplocos setchuensis, and its derivatives” (J Nat Prod, 2001):

Columns and labels:
H9 = test: Cytotoxicity against human H9 cells; type: cell-based
[1] = tested on: Human immunodeficiency virus 1; test: Antiviral activity against HIV1 in human H9 cells assessed as inhibition of viral replication; type: functional, organism-based
[2] = Therapeutic index, ratio of IC50 for human H9 cells to EC50 for HIV1; type: cell-based; conditions: for selectivity ratio: H9 cells, read-out: Ratio IC50/EC50; for Ratio IC50/EC50: h9
[3] = Human immunodeficiency virus 1, H9, read-out: EC50

EC50 ([1]; h9)	SMILES	IC50 (H9; Homo sapiens, H9)	EC50 [1, 3]	selectivity ratio [2]	IC50 (H9; h9)	EC50 ([1]; h9, read-out: EC50)	Ratio IC50/EC50 [2]
	CCn1c2cc(OC)ccc2c2ccnc(C)c21	8.5 µM	0.35 µM	24.2			
	Br.COc1cc2[nH]c3c(C)nccc3c2cc1Br				5.9 µM	0.22 µM	26.8
	COc1ccc2c(c1)[nH]c1c(C)[n+](C)ccc12.[I-]	49.6 µM	8.6 µM				5.8
Not Active	COc1ccc2c(c1)[nH]c1c(/C=C/c3ccc([N+](=O)[O-])cc3)nccc12	15.4 µM					
	CCC[n+]1ccc2c([nH]c3cc(OC)ccc32)c1C.[I-]	55.4 µM	9.6 µM				5.8
	COc1cc2[nH]c3c(C)nccc3c2cc1Br				74 µM	13.2 µM	5.6
Not Active	CCCCCCCCCCCCCCCCOc1ccc2c(c1)[nH]c1c(C)nccc12	42.7 µM					
	CCOc1ccc2c(c1)[nH]c1c(C)nccc12	25.9 µM	6.5 µM				4
Not Active	Cc1cc(O)n2c(n1)nc1ccccc12	118 µM					
Not Active	CCCCCCCCCCOc1ccc2c(c1)[nH]c1c(C)nccc12	5.9 µM					
	CC1=NCCc2c1[nH]c1ccccc21	110 µM	32 µM				3.4
	CC(=O)Oc1ccc2c(c1)[nH]c1c(C)nccc12	107 µM	17.3 µM				6.2
	COc1ccc2c3c([nH]c2c1)C(C)N(N=O)CC3 (stereo not given)	56.5 µM	7.1 µM	8			
	CCCCn1c2cc(OC)ccc2c2ccnc(C)c21	7.8 µM	0.037 µM	210			
	COc1ccc2c3ccn(C)c(C)c-3nc2c1	70.9 µM					15.8
	COS(=O)(=O)O.Cc1nccc2c1[nH]c1ccccc12				77.5 µM	10.3 µM	7.5
	COc1ccc2c3ccnc(C)c3n(C)c2c1	10.1 µM	1.1 µM	9.2			
Not Active	Cc1nccc2c1[nH]c1cc(OC(=O)C34CCC(C)(C(=O)O3)C4(C)C)ccc12 (stereo not given)	58.9 µM					
	CCCn1c2cc(OC)ccc2c2cc[n+](C)c(C)c21.[Br-]	53.2 µM	23.8 µM				2.2
Not Active	CCCCCCCCC1NC(C(=O)O)Cc2c1[nH]c1ccccc21 (stereo not given)	60.4 µM					
	COc1cc(C[C@H]2COC(=O)[C@@H]2Cc2ccc(OC(C)=O)c(OC)c2)ccc1OC(C)=O	49.3 µM	6.9 µM	7.1			
Not Active	COc1cc([C@@H]2OC[C@@H]3[C@H]2CO[C@H]3c2ccc(O)c(OC)c2)ccc1O [(+)-PINORESINOL]	67 µM					
	Cc1nccc2c1[nH]c1ccccc12 [HARMAN]	112 µM	10.7 µM	10.4			
	COc1ccc2c(c1)[nH]c1c(C)nccc12 [HARMINE]	26.4 µM	0.52 µM				50.8
	Cc1[nH]ccc2c1[nH]c1cc(=O)ccc12 [HARMOL]	108 µM	11.1 µM				9.7
Not Active	COc1cc([C@H]2c3cc(O)c(OC)cc3C[C@@H](CO)[C@@H]2CO)ccc1O [ISOLARICIRESINOL]	> 277 µM					
	COc1cc(C[C@H]2COC(=O)[C@@H]2Cc2ccc(O)c(OC)c2)ccc1O [MATAIRESINOL]	21.9 µM	2 µM	11			
Not Active	COc1cc(C[C@H]2COC(=O)[C@@H]2Cc2ccc(O[C@@H]3O[C@H](CO)[C@@H](O)[C@H](O)[C@H]3O)c(OC)c2)ccc1O [MATAIRESINOSIDE]	> 192 µM					
	c1ccc2c(c1)[nH]c1cnccc12 [NORHARMANE]	142 µM	44.1 µM				3.2

SMILES	EC50 ([1]; h9)	IC50 (H9; Homo sapiens, H9)	EC50 [1, 3]	selectivity ratio [2]	IC50 (H9; h9)	EC50 ([1]; h9, read-out: EC50)	Ratio IC50/EC50 [2]
Cc1nccc2c1[nH]c1cc(OC(C)C)ccc12	Not Active	86.7 µM					
CCCCCCOc1ccc2c(c1)[nH]c1c(C)nccc12	Not Active	8.2 µM					
Br.CC1=NCCc2c1[nH]c1cc(O)ccc21	Not Active	97.1 µM					
CC1=NCCc2c1[nH]c1cc(O)ccc21.Cl [HARMALOL HYDROCHLORIDE]	Not Active				87.1 µM		
